Key:
NCI-H3122 = test: Growth of cancer cells (Cell Titer-Glo viability), NCI-H3122; format: cell-based; details: Homo sapiens; NCI-H3122 (expressing ALK gene), 72 hrs; read-out: GI50
Description: (§1) By testing the effect of the novel kinase inhibitors on the proliferation of cancer cells, the selectivity of the compounds of the present disclosure in inhibiting the proliferation of cancer cells was further assessed. In this example, human non-small cell lung cancer cell NCI-H1975 (expressing EGFR L858R/T790M double mutant gene), human skin squamous carcinoma cell A431 (expressing wild-type EGFR gene), non-small cell lung cancer NCI-H3255 (expressing EGFR L858R mutant gene), non-small cell lung cancer cell NCI-H3122 (expressing ALK gene), human non-small cell lung cancer cell A549 (expressing wild-type EGFR gene), human non-small cell lung cancer cell NCI-H2122 (expressing wild-type EGFR gene), human non-small cell lung cancer cell NCI-H460 (expressing wild-type EGFR gene), human non-small cell lung cancer cell PC-9 (expressing EGFR delE746_A750 mutant gene), Chinese hamster ovary cell CHO (Cricetulus griseus, hamster, Chinese, ovary), Chinese hamster lung cell CHL, human non-small cell lung cancer cell HCC827 (expressing mutant EGFR del19 gene), human lung adenocarcinoma cell HCC4006 (expressing mutant EGFR del19 gene), human non-small cell lung cancer cell NCI-H2228 (expressing wild-type ALK gene), and mouse primary B cell BaF3 were used, and the above cells were all purchased from ATCC (US). In addition, mouse BaF3-TEL-ALK (stably expressing ALK kinase), mouse BaF3-ALK-F1174L (stably expressing mutant ALK F1174L kinase), mouse BaF3-NPM-ALK (stably expressing ALK kinase), mouse BaF3-TEL-EGFR (stably expressing EGFR kinase), mouse BaF3-TEL-EGFR-T790M (stably expressing EGFR T790M mutant kinase), mouse BaF3-FL-EGFR-Del19 (stably expressing EGFR delE746_A750 mutant kinase), mouse BaF3-TEL-EGFR-L858R (stably expressing EGFR L858R mutant kinase), mouse BaF3-FL-EGFR-T790M-L858R (stably expressing EGFR T790M/L858R mutant kinase), mouse BaF3-TEL-INSR (stably expressing INSR protein), mouse BaF3-TEL-IGF1R (stably expressing IGF1R Protein), mouse BaF3-EML4-ALK (stably expressing EML4-ALK Protein), mouse BaF3-TEL-JAK3 (stably expressing JAK3 kinase protein), mouse BaF3-TEL-CSF1R (stably expressing CSF1R protein), and mouse BaF3-TEL-ALK-F1196M (stably expressing ALK F1196M mutant kinase) were also used in this example. The above cell lines were all established by our laboratory via the following process: kinase proteins or protein domain sequences of human ALK, ALK F1174L, EGFR, EGFR T790M, EGFR delE746_A750, EGFR L858, EGFR T790M/L858R, INSR, IGF1R, EML4-ALK, JAK3, CSF1R, ALK F1196M were amplified respectively by PCR, and were respectively inserted into MSCV-Puro vector (Clontech) with N-terminal TEL fragments and/or NPM fragments and/or TPR fragments; the resultants were stably transfected into mouse BaF3 cells by the means of retrovirus, and the IL-3 growth factors were removed, and eventually the ALK, ALK F1174L, EGFR, EGFR T790M, EGFR delE746_A750, EGFR L858, EGFR T790M/L858R, INSR, IGF1R, EML4-ALK, JAK3, CSF1R, ALK F1196M-transferred protein dependent cell lines were obtained.
(§2) The number of viable cells was determined quantitatively by a microplate reader using Cell Titer-Glo® (Promega, US) chemiluminescence cell viability assay kit.

BaF3-NPM-ALK = test: Cell growth (Cell Titer-Glo viability), BaF3-NPM-ALK; format: cell-based; details: Mus musculus; BaF3-NPM-ALK (stably expressing ALK kinase), 72 hrs
Description: as §1, §2

A549 = test: Growth of cancer cells (Cell Titer-Glo viability), A549; format: cell-based; details: Homo sapiens; A549 (wild-type EGFR), 72 hrs
Description: as §1, §2

HCC827 = test: Growth of cancer cells (Cell Titer-Glo viability), HCC827; format: cell-based; details: Homo sapiens; HCC827 (mutant EGFR del19), 72 hrs
Description: as §1, §2

NCI-H3255 = test: Growth of cancer cells (Cell Titer-Glo viability), NCI-H3255; format: cell-based; details: Homo sapiens; NCI-H3255 (EGFR L858R mutant), 72 hrs
Description: as §1, §2

BaF3 = test: Cell growth (Cell Titer-Glo viability), BaF3; format: cell-based; details: BaF3 mouse primary B cell, 72 hrs
Description: as §1, §2

BaF3-TEL-ALK = test: Cell growth (Cell Titer-Glo viability), BaF3-TEL-ALK; format: cell-based; details: Mus musculus; BaF3-TEL-ALK (stably expressing ALK kinase), 72 hrs
Description: as §1, §2

NCI-H1975 = test: Growth of cancer cells (Cell Titer-Glo viability), NCI-H1975; format: cell-based; details: Homo sapiens; NCI-H1975 (EGFR L858R/T790M double mutant), 72 hrs
Description: as §1, §2

PC-9 = test: Growth of cancer cells (Cell Titer-Glo viability), PC-9; format: cell-based; details: Homo sapiens; PC-9 (EGFR delE746_A750 mutant), 72 hrs
Description: as §1, §2

BaF3-TEL-INSR = test: Cell growth (Cell Titer-Glo viability), BaF3-TEL-INSR; format: cell-based; details: Mus musculus; BaF3-TEL-INSR (stably expressing INSR protein), 72 hrs
Description: as §1, §2

BaF3-FL-EGFR-Del19 = test: Cell growth (Cell Titer-Glo viability), BaF3-FL-EGFR-Del19; format: cell-based; details: Mus musculus; BaF3-FL-EGFR-Del19 (EGFR delE746_A750 mutant kinase), 72 hrs
Description: as §1, §2

CHO = test: Cell growth (Cell Titer-Glo viability), CHO; format: cell-based, Chinese hamster; details: Cricetulus griseus; CHO Chinese hamster ovary cell, 72 hrs; read-out: GI50
Description: as §1, §2

A431 = test: Growth of cancer cells (Cell Titer-Glo viability), A431; format: cell-based; details: Homo sapiens, A-431; A431 (wild-type EGFR), 72 hrs; read-out: GI50
Description: as §1, §2

NCI-H2122 = test: Growth of cancer cells (Cell Titer-Glo viability), NCI-H2122; format: cell-based; details: Homo sapiens; NCI-H2122 (wild-type EGFR), 72 hrs
Description: as §1, §2

BaF3-ALK-F1174L = test: Cell growth (Cell Titer-Glo viability), BaF3-ALK-F1174L; format: cell-based; details: Mus musculus; BaF3-ALK-F1174L (mutant ALK F1174L kinase), 72 hrs
Description: as §1, §2

HCC4006 = test: Growth of cancer cells (Cell Titer-Glo viability), HCC4006; format: cell-based; details: Homo sapiens; HCC4006 (mutant EGFR del19), 72 hrs
Description: as §1, §2

CHL = test: Cell growth (Cell Titer-Glo viability), CHL; format: cell-based, Chinese hamster; details: Cricetulus griseus; CHL Chinese hamster lung cell, 72 hrs; read-out: GI50
Description: as §1, §2

NCI-H2228 = test: Growth of cancer cells (Cell Titer-Glo viability), NCI-H2228; format: cell-based; details: Homo sapiens; NCI-H2228 (wild-type ALK), 72 hrs
Description: as §1, §2

BaF3-TEL-EGFR-T790M = test: Cell growth (Cell Titer-Glo viability), BaF3-TEL-EGFR-T790M; format: cell-based; details: Mus musculus; BaF3-TEL-EGFR-T790M (EGFR T790M mutant kinase), 72 hrs
Description: as §1, §2

BaF3-TEL-EGFR = test: Cell growth (Cell Titer-Glo viability), BaF3-TEL-EGFR; format: cell-based; details: Mus musculus; BaF3-TEL-EGFR (stably expressing EGFR kinase), 72 hrs
Description: as §1, §2

Row | Compound | GI50 (NCI-H3122) [nM] | GI50 (BaF3-NPM-ALK) [nM] | GI50 (A549) [nM] | GI50 (HCC827) [nM] | GI50 (NCI-H3255) [nM] | GI50 (BaF3) [nM] | GI50 (BaF3-TEL-ALK) [nM] | GI50 (NCI-H1975) [nM] | GI50 (PC-9) [nM] | GI50 (BaF3-TEL-INSR) [nM] | GI50 (BaF3-FL-EGFR-Del19) [nM] | GI50 (A431) [nM] | GI50 (NCI-H2122) [nM] | GI50 (BaF3-ALK-F1174L) [nM] | GI50 (HCC4006) [nM] | GI50 (NCI-H2228) [nM] | GI50 (BaF3-TEL-EGFR-T790M) [nM] | GI50 (BaF3-TEL-EGFR) [nM] | GI50 (CHO) [nM] | GI50 (CHL) [nM]
1 | C=CC(=O)Nc1cc(Nc2ncc(Cl)c(Nc3ccccc3P(C)(C)=O)n2)c(OC)cc1N1CCC(N(C)C)CC1 [Compound 49, N-(5-(5-chloro-4-(2-(dimethylphosphinoyl)phenylamino)pyrimidin-2-ylamino)-2-(4-(dimethylamino)piperidin-1-yl)-4-methoxyphenyl)acrylamide] | 140 | 600 | 8600 | 15 | 350 | > 10000 | 450 | 220 | 120 | 920 |  |  |  |  |  |  |  |  |  | 
2 | C=CC(=O)Nc1cc(Nc2ncc(Cl)c(Nc3ccccc3P(C)(C)=O)n2)c(OC)cc1N1CCC(N2CCCCC2)CC1 [Compound 48, N-(5-(5-chloro-4-(2-(dimethylphosphinoyl)phenylamino)pyrimidin-2-ylamino)-4-methoxy-2-(4-(piperidin-1-yl)piperidin-1-yl)phenyl)acrylamide] | 78 | 380 | 5300 | 5 | 200 | 5300 | 190 | 41 | 32 | 290 |  |  |  |  |  |  |  |  |  | 
3 | C=CC(=O)Nc1cc(Nc2ncc(Cl)c(Nc3ccccc3S(=O)(=O)C(C)C)n2)c(OC)cc1N1CCN(CCF)CC1 [Compound 9, N-(5-(5-chloro-4-(2-(isopropylsulfonyl)phenylamino)pyrimidin-2-ylamino)-2-(4-(2-fluoroethyl)piperazin-1-yl)-4-methoxyphenyl)acrylamide] | 42 |  | 1300 | 35 |  | 2900 | > 10000 | 59 | 43 |  | < 0.3 | 320 | 680 | 540 |  | 260 | 47 | 650 | 1000 | 4300
4 | C=CC(=O)Nc1cc(Nc2ncc(Cl)c(Nc3ccc(F)c(Cl)c3)n2)c(OC)cc1N1CCN(C)CC1 [Compound 21, N-(5-(5-chloro-4-(3-chloro-4-fluorophenylamino)pyrimidin-2-ylamino)-4-methoxy-2-(4-methylpiperazin-1-yl)phenyl)acrylamide] | 300 |  | > 10000 | 28 |  | 6800 | 43 | 100 | 31 |  | < 0.3 | 1100 | 1400 | 740 |  | 78 | 35 |  | 6200 | > 10000

These reach a lower GI50 (NCI-H3122). Values come first.

Row | GI50 (NCI-H3122) [nM] | GI50 (BaF3-NPM-ALK) [nM] | GI50 (A549) [nM] | GI50 (HCC827) [nM] | GI50 (NCI-H3255) [nM] | GI50 (BaF3) [nM] | GI50 (BaF3-TEL-ALK) [nM] | GI50 (NCI-H1975) [nM] | GI50 (PC-9) [nM] | GI50 (BaF3-TEL-INSR) [nM] | GI50 (BaF3-FL-EGFR-Del19) [nM] | GI50 (A431) [nM] | GI50 (NCI-H2122) [nM] | GI50 (BaF3-ALK-F1174L) [nM] | GI50 (HCC4006) [nM] | GI50 (NCI-H2228) [nM] | GI50 (BaF3-TEL-EGFR-T790M) [nM] | GI50 (BaF3-TEL-EGFR) [nM] | Compound | GI50 (CHO) [nM] | GI50 (CHL) [nM]
5 | 29 |  | 330 | 51 |  | 340 | 15 | 240 | 27 |  | 6 | 540 | 880 | 310 | 260 | 200 | 18 |  | C=CC(=O)Nc1cc(Nc2ncc(Cl)c(Nc3ccccc3S(=O)(=O)C(C)C)n2)c(OC)cc1N1CCCCC1 [Compound 6, N-(5-(5-chloro-4-(2-(isopropylsulfonyl)phenylamino)pyrimidin-2-ylamino)-4-methoxy-2-(piperidin-1-yl)phenyl) acrylamide] | 360 | > 10000
6 | 37 | 310 | 1700 | < 0.3 | 140 | > 10000 | 74 | 26 | 5 | 72 |  |  |  |  |  |  |  |  | C=CC(=O)Nc1cc(Nc2ncc(Cl)c(Nc3ccccc3P(C)(C)=O)n2)c(OC)cc1N1CCN(CC)CC1 [Compound 47, N-(5-(5-chloro-4-(2-(dimethylphosphinoyl)phenylamino)pyrimidin-2-ylamino)-2-(4-ethylpiperazin-1-yl)-4-methoxyphenyl)acrylamide] |  | 
7 | 11 |  | 600 | < 3 |  | 1100 | > 10000 | 31 | < 3 |  | < 0.3 | 220 | 370 | 530 |  | 490 | 10 | 500 | C=CC(=O)Nc1cc(Nc2ncc(Cl)c(Nc3ccccc3S(=O)(=O)N(C)C)n2)c(OC)cc1N1CCN(C)CC1 [Compound 32, N-(5-(5-chloro-4-(2-(N,N-dimethylsulfamido)phenylamino)pyrimidin-2-ylamino)-4-methoxy-2-(4-methylpiperazin-1-yl)phenyl)acrylamide] | 340 | 1600
8 | 33 |  | 870 | 10 |  | 1600 | > 10000 | 43 | 5 |  | < 0.3 | 250 | 3600 | 670 |  | 250 | 12 | 450 | C=CC(=O)Nc1cc(Nc2ncc(Cl)c(Nc3ccccc3S(=O)(=O)C(C)C)n2)c(OC)cc1N1CCN(C)CC1 [Compound 2, N-(5-(5-chloro-4-(2-(isopropylsulfonyl)phenylamino)pyrimidin-2-ylamino)-4-methoxy-2-(4-methylpiperazin-1-yl)phenyl)acrylamide] | 500 | 2000

— patent publication US10350210B2, “EGFR and ALK dual inhibitor” (PRECEDO PHARMACEUTICALS CO., LTD, priority 2015, dated 2019)
